Results reported in patent US4118487A, “Substituted azol-1-ylmethanes” (Bayer Aktiengesellschaft, priority 1974, dated 1978).
In brackets after ≈: the same amount, converted by molar mass. Where two headings read alike, the source gives them in different places.

Assays:
[1] = system: Trichophyton mentagrophvtes; experiment: Antimycotic activity in vitro, series dilution test (MIC); format: cell-based, Trichophyton mentagrophytes; details: 28° C., 24-96 hours, Sabouraud's milieu d'epreuve, 5 × 10^4 germs/ml, read-out: MIC values in γ/ml of nutrient medium, for Trichophyton mentagrophvtes
Protocol: (§1) The in vitro tests were carried out in a series dilution test with germ inocula averaging 5 × 10^4 germs/ml of substrate. The nutrient media used were
(§2) (a) for dermatophytes and molds Sabouraud's milieu d'epreuve,
(§3) The incubation temperatures were 28° C. for dermatophytes, yeasts and molds and 37° C. for biphase fungi; the incubation time was 24-96 hours.

Candida albicans = experiment: as above; format: cell-based; details: read-out: MIC values in γ/ml of nutrient medium, for Candida albicans
Protocol: as §1
(b) for yeasts: meat extract-glucose bouillon,
as §3

Pityrosporum ovale = experiment: as above; format: cell-based; details: Malassezia furfur; Abbe medium, 24-96 hours, 5 × 10^4 germs/ml; read-out: MIC values in γ/ml of nutrient medium, for Pityrosporum ovale
Protocol: The in vitro tests were carried out in a series dilution test with germ inocula averaging 5 × 10^4 germs/ml of substrate. The nutrient media used were (c) for Pytrosporum ovale: Abbe medium, and The incubation temperatures were 28° C. for dermatophytes, yeasts and molds and 37° C. for biphase fungi; the incubation time was 24-96 hours.

Aspergillus fumigatus = experiment: as above; format: cell-based; details: read-out: MIC values in γ/ml of nutrient medium, for Aspergillus fumigatus
Protocol: as §1, §2, §3

penicillium = experiment: as above; format: cell-based; details: 28° C., 24-96 hours, Sabouraud's milieu d'epreuve, 5 × 10^4 germs/ml, read-out: MIC values in γ/ml of nutrient medium, for penicillium
Protocol: as §1, §2, §3

Histoplasma = experiment: microbe, parasite or virus in culture; format: cell-based; details: read-out: MIC values in γ/ml of nutrient medium, for Histoplasma
[2] = system: Staphylococcus aureus 133; experiment: Antibacterial activity in vitro, plast test (MIC); format: cell-based; details: agar plate, 5 × 10^3 /plate, pH 7.4
Protocol: (§4) The in vitro tests were carried out by the plast test. In this, the bacteria were cast with the agar, at a concentration of 5 × 10^3 /plate. […]

Streptococcus pyogenes W = experiment: Antibacterial activity in vitro, plast test (MIC); format: cell-based; details: agar plate, 5 × 10^3 /plate, pH 7.4; in µg/mL
Protocol: as §4

Klebsiella 8085 = experiment: Antibacterial activity in vitro, plast test (MIC); format: cell-based; details: agar plate, 5 × 10^3 /plate, pH 7.4
Protocol: as §4

Proteus vulgaris 1017 = experiment: Antibacterial activity in vitro, plast test (MIC); format: cell-based; details: agar plate, 5 × 10^3 /plate, pH 7.4
Protocol: as §4

fungi = details: Belgian Pat. No. 720,801; cited from earlier work
bacteria = experiment: Antibacterial activity (general statement); format: cell-based
Pseudomonas aerug. B = experiment: Antibacterial activity in vitro, plast test (MIC); format: cell-based; details: agar plate, 5 × 10^3 /plate, pH 7.4
Protocol: as §4

E-Coli A 261 = experiment: Antibacterial activity in vitro, plast test (MIC); format: cell-based; details: agar plate, 5 × 10^3 /plate, pH 7.4
Protocol: as §4

[3] = 28° C., 24-96 hours, meat extract-glucose bouillon, 5 × 10^4 germs/ml
[4] = 28° C., 24-96 hours, Sabouraud's milieu d'epreuve, 5 × 10^4 germs/ml

Row | Compound | MIC [1] | MIC (Pityrosporum ovale) | MIC (penicillium) | MIC (Histoplasma) | MIC values for Staphylococcus aureus 133 [2] | MIC values for Streptococcus pyogenes W (Streptococcus pyogenes W) | further results
1 | Clc1ccccc1C(c1ccc(Oc2ccccc2)cc1)n1ccnc1 (centres unmarked) | 16 µg/mL (≈ 44.3 µM) | 1 µg/mL (≈ 2.77 µM) | < 0.1 µg/mL | 2 µg/mL (≈ 5.54 µM) | – | – | MIC (Candida albicans; [3]): 8 µg/mL (≈ 22.2 µM); MIC (Aspergillus fumigatus; [4]): < 0.1 µg/mL
2 | Clc1cccc(C(c2ccc(-c3ccccc3)cc2)n2ccnc2)c1 (centres unmarked) [drawing 16] | – | – | – | – | 8 µg/mL | 128 | –
3 | Clc1ccc(C(c2ccc(-c3ccccc3)cc2)n2ccnc2)cc1 (centres unmarked) | – | – | – | – | 8 µg/mL | 10 | –
4 | Clc1ccccc1C(c1ccc(-c2ccccc2)cc1)n1ccnc1 (centres unmarked) [drawing 10] | < 1 µg/mL | 1 µg/mL (≈ 2.9 µM) | < 0.1 µg/mL | 4 µg/mL (≈ 11.6 µM) | – | – | MIC (Candida albicans; [3]): 2 µg/mL (≈ 5.8 µM); MIC (Aspergillus fumigatus; [4]): < 0.1 µg/mL
5 | c1ccc(-c2ccc(C(c3ccccc3)n3ccnc3)cc2)cc1 (centres unmarked) [drawing 13] | – | – | – | – | 8 µg/mL | 10-20 | MIC values for Klebsiella 8085 (Klebsiella 8085): 128 µg/mL; MIC values for Proteus vulgaris 1017 (Proteus vulgaris 1017): 128 µg/mL
6 | c1ccc(-c2ccc(C(c3ccccc3)n3ccnc3)cc2)cc1 (centres unmarked) [drawing 9] | < 1 µg/mL | 1 µg/mL (≈ 3.22 µM) | < 0.1 µg/mL | 4 µg/mL (≈ 12.9 µM) | – | – | MIC (Candida albicans): 4 µg/mL (≈ 12.9 µM); MIC (Aspergillus fumigatus): < 0.1 µg/mL
7 | Clc1ccccc1C(c1ccccc1)(c1ccccc1)n1ccnc1 [clotrimazol, bisphenyl-(2-chlorophenyl)-imidazol-1-ylmethane] | – | – | – | – | – | – | antimycotic action (fungi): good antimycotic action
8 | C[C@@H]1[C@H](O)[C@@H](C)/C=C/C=C/CC/C=C/C=C/C=C/C=C/C(O[C@H]2O[C@H](C)[C@@H](O)[C@H](N)[C@@H]2O)CC2O[C@](O)(CC(O)C(O)CCC(O)CC(O)CC(O)CC(=O)O[C@H]1C)CC(O)C2C(=O)O (some centres unmarked) [nystatin] | – | – | – | – | – | – | antibacterial activity (bacteria): not present
9 | C[C@@H]1C/C=C/C=C/C=C/C=C/[C@H](O[C@@H]2O[C@H](C)[C@@H](O)[C@H](N)[C@@H]2O)C[C@@H]2O[C@](O)(C[C@@H](O)C[C@H]3O[C@@H]3/C=C/C(=O)O1)C[C@H](O)[C@H]2C(=O)O [pimaricin] | – | – | – | – | – | – | antibacterial activity (bacteria): not present
10 | CC(C)(C)c1ccc(C(c2ccc(-c3ccccc3)cc2)n2ccnc2)cc1 (centres unmarked) | – | – | – | – | 8 µg/mL | 128 | MIC values for Klebsiella 8085 (Klebsiella 8085): 128 µg/mL; MIC values for Proteus vulgaris 1017 (Proteus vulgaris 1017): 128 µg/mL; MIC values for Pseudomonas aerug. B (Pseudomonas aerug. B): 256 µg/mL
11 | COC1=CC(=O)C[C@@H](C)[C@]12Oc1c(Cl)c(OC)cc(OC)c1C2=O [griseofulvin] | – | – | – | – | – | – | antibacterial activity (bacteria): not present
12 | Clc1ccccc1C(c1ccc(-c2ccccc2)cc1)n1ccnc1 (centres unmarked) [drawing 14] | – | – | – | – | 8 µg/mL | 128 | MIC values for E-Coli A 261 (E-Coli A 261): 256 µg/mL; MIC values for Klebsiella 8085 (Klebsiella 8085): 128 µg/mL; MIC values for Proteus vulgaris 1017 (Proteus vulgaris 1017): 128 µg/mL; MIC values for Pseudomonas aerug. B (Pseudomonas aerug. B): 256 µg/mL
13 | Clc1cccc(C(c2ccc(-c3ccccc3)cc2)n2ccnc2)c1 (centres unmarked) [drawing 11] | 2 µg/mL (≈ 5.8 µM) | 1 µg/mL (≈ 2.9 µM) | < 0.1 µg/mL | 2 µg/mL (≈ 5.8 µM) | – | – | MIC (Candida albicans; [3]): 1 µg/mL (≈ 2.9 µM); MIC (Aspergillus fumigatus; [4]): < 0.1 µg/mL
